These are literature values, as cited in US20220184020A1, “Polyphenols as Modulators of Platelet Function” (Northeastern University, priority 2019, published 2022).

The structures appear in SMILES notation.

The conditions of data set [1]: cited from earlier work; for Max: maximum concentration detected in blood; for Max / Min: HMDB; for Min: minimum concentration detected in blood; for Concentration in Blood: retrieved from HMDB, Table 2.
The conditions of data set [2]: in vitro and in vivo models; cited from earlier work.
For data set [3] the following is noted: in vivo models, recent studies; cited from earlier work.
Another data set concerns MCF7 cell line. The settings on record: MCF7, 1 μM, 6 hours; cited from earlier work.

Regarding `O=c1oc2c(O)c(O)cc3c(=O)oc4c(O)c(O)cc1c4c23` [ellagic acid], in data set [1], the “Max” value was 0.067 µM and the “Min” value is 0.067 µM.

On to `O=c1oc2cc(O)ccc2c2oc3cc(O)ccc3c12` [coumestrol], for which, in data set [1], the “Max” value was 0.0123 µM and the “Min” value was 0.0123 µM.

On to `O=C(O)Cc1ccccc1` [phenylacetic acid], for which, in data set [1], the “Max” value is 80.36 µM and the “Min” value was 10.28 µM.

For the compound `Oc1cc(O)c2c(c1)O[C@H](c1ccc(O)c(O)c1)[C@H](O)C2` [(-)-epicatechin], in data set [1], the “Max” value was 0.625 µM, the “Min” value was 0.625 µM and the “Concentration in Blood” value is 625 nM.

In the case of `O=c1cc(-c2ccc(O)cc2)oc2cc(O)cc(O)c12` [apigenin], in data set [1], the “Max” value was 0.127 µM and the “Min” value was 0.0106 µM.

Regarding `Oc1ccccc1` [phenol], in data set [1], the “Max” value was 6.38 µM and the “Min” value is 0.86 µM.

With `O=C(O)c1ccccc1O` [2-hydroxybenzoic acid], in data set [1], the “Max” value is 0.02 µM and the “Min” value was 0.02 µM.

For `O=C(O[C@@H]1Cc2c(O)cc(O)cc2O[C@@H]1c1cc(O)c(O)c(O)c1)c1cc(O)c(O)c(O)c1` [(-)-epigallocatechin 3-O-gallate], the glucose-lowering effects entry in data set [2] is reported as “glucose-lowering effects”.

As for `O=C(O)c1cccc(O)c1O` [2,3-dihydroxybenzoic acid], in data set [1], the “Max” value was 0.129 µM and the “Min” value was 0.129 µM.

With `O=C(O)c1cc(O)c(O)c(O)c1` [gallic acid], the “effects on vascular health” value in data set [3] is “protective effects on vascular health”.

Turning to `COc1ccccc1O` [guaiacol], in data set [1], the “Max” value was 8.5 µM and the “Min” value was 8.5 µM.

In the case of `COc1cc(-c2oc3cc(O)cc(O)c3c(=O)c2O)ccc1O` [isorhamnetin], in data set [1], the “Max” value was 0.157 µM and the “Min” value was 0.0388 µM.

As for `O=c1c(O)c(-c2ccc(O)c(O)c2)oc2cc(O)cc(O)c12` [quercetin], the “Concentration in Blood” value in data set [1] is “[0.022-0.080 μM]”.

Turning to `O=C1C[C@@H](c2ccc(O)cc2)Oc2cc(O)cc(O)c21` [naringenin], in data set [1], the “Max” value is 0.02 µM and the “Min” value was 0.00815 µM.

For the compound `O=c1c(O)c(-c2cc(O)c(O)c(O)c2)oc2cc(O)cc(O)c12` [myricetin], in data set [1], the “Max” value is 45 µM and the “Min” value is 45 µM.

For `O=c1c(-c2ccc(O)cc2)coc2cc(O)cc(O)c12` [genistein], in the data set with MCF7 cell line, the “number of Skin Diseases (SD) genes with perturbation score>2” value is 10 and the “number of highly perturbed Cerebrovascular Disorders (CD) genes” value is given as “one”. In data set [1], the “Max” value is 0.525 µM, the “Min” value is 0.00022 µM and the “Concentration in Blood” value was “[0.006-0.525 μM]”.
